# Key:
# [1] = tested on: HeLa cells; assay: Confocal microscopy localization in HeLa cells; type: cell-based; settings: IC50 concentrations, 12-18 h
# Method: Herein we have shown that cATC fluorescent derivatives bind with ct-DNA in the non-intercalating mode. Thus we assumed that cATC derivatives might bind to the DNA, localizing within the nucleus and affecting the cell division. We studied the localization of fluorescent signals in HeLa cells using IC50 concentrations of compounds (6e, 6j, and 6n) at different time points using a confocal microscope. For all the compounds initially (at 12 h), the signal was present in the cytoplasm and the nucleus (Fig. 6A–C). With increasing time, the signal became more intense in the nucleus (Fig. 6A–D).
# HeLa cells (60,000) were grown onto a coverslip (Coverglass for cell Growth™, Fisherbrand, USA) in a 24-well plate. […] Thereafter, cells were fixed in 4% paraformaldehyde (Himedia), washed with ice-cold 1X PBS, permeabilized with 0.25% Triton X-100 (Sigma), and washed with 0.1% PBST. The cell was counter stained with 49,6-diamidino-2-phenylindole, dihydrochloride (DAPI, Invitrogen) and mounted using one drop of ProLong® Gold antifade reagent (Invitrogen) on a slide. Images were acquired by fluorescence microscope (Leica SP8 TCS) and analyzed using ImageJ (NIH).
# [2] = MTS cell viability assay in HeLa; type: cell-based; settings: human, HeLa cells; HeLa, 50 μM, 18 h
# Method: (§1) We investigated the effect of nine cATC derivatives (6b/6d/6e/6f/6i/6j/6k/6l/6n) on cell viability in cancer cell-line HeLa and transformed normal cell-line HEK293. We treated cells with the varying concentrations of the compounds ranging from 10 nM to 50 μM for 18 h (optimized).
# (§2) MTS assay (CellTiter 96® AQueous One Solution Cell Proliferation Assay (Promega, USA) was used to determine the cell viability. HeLa and HEK293 cells (20,000 cells in each well) were plated in 96 well plate and treated with 6e, 6j, and 6n varying concentrations of the compounds ranging from 10 nM to 50 μM for 18 h. The assay was carried out according to the manufacturer’s instructions. Finally, the plate was read in Varioskan™ LUX multimode microplate reader (Thermo Fisher Scientific) at 490 nm.
# (§3) Cell scavenging activity was calculated using the following formula:
# (§4) OD(490nm) (control) – OD(490nm) (Test)/OD(490nm) (control) × 100%
# (§5) Cell Viability of the cell was calculated using the following formula: […]
# [3] = tested on: HeLa cells; assay: MTS cell viability assay in HeLa; type: cell-based; settings: for IC50: Homo sapiens
# Method: as §1, §2, §3, §4, §5
# [4] = tested on: HeLa cells; assay: Cell cycle analysis by flow cytometry (PI); type: cell-based; settings: 18 h, 6e 18 μM, 6j 19 μM, 6n 19 μM
# Method: HeLa cells were cultured in 6 well plates with initial density 0.5 × 10^6 cells/well. These cells were treated with the IC50 concentration of 6n, 6j, and 6e compounds for 18 h. The cells were washed with 1X PBS and fixed with 70% ethanol. After washing, cells were resuspended in 500 μl PBS containing Propidium Iodide (PI) (500 μg/ml), RNase A (1X), and Triton X-100 (0.1%), and incubated for 30 min in the dark. Finally, the cells were analyzed by flow cytometry (BD Biosciences, CA, USA). The relative proportions of cells with DNA content G0–G1 (2n), S phase (>2n but <4n), and G2/M phase (4n) were acquired and analyzed using CellQuest Pro software (BD Biosciences).
# [5] = tested on: p38-p53 pathway and EMT markers in HeLa cells; assay: Western blot of p38-p53 pathway and EMT markers; type: cell-based
# Method: In order to figure out the mechanism of apoptosis induction, we analyzed the effect of different concentrations of 6e (0 μM, 4 μM, 9 μM, 14 μM and 18 μM), 6j (0 μM, 5 μM, 10 μM, 15 μM and 19 μM), and 6n (0 μM, 5 μM, 10 μM, 15 μM and 19 μM) compounds on p38-p53 pathway.
# Cell lysates were prepared from HeLa treated with compounds 6e, 6j, and 6n in ice-cold RIPA buffer (Thermo Scientific, USA), and supplemented with protease and phosphatase inhibitor cocktail (Thermo Scientific, USA). Protein quantification of cell lysates was done using BCA reagent (Thermo Scientific). 20 µg of protein samples were separated on a 12% SDS-PAGE and subsequently transferred onto a PVDF membrane (Merck Millipore, USA). The blots were probed with specific antibodies for p38 (1:1000, #9212, Cell Signaling Technology, USA), phospho-p38 (1:1000, #9211; Cell Signaling technology), p53 (1:1000, #9282, Cell signalling technology), phospho-p53 (1:1000, #9284, Cell Signaling technology), snail (1:1000, #C15D3, Cell Signaling technology), slug (1:1000, #C19G7, Cell signalling technology) and GAPDH (1:5000, #ABM22C5, Abgenex, India) followed by incubation with HRP tagged anti-mouse IgG secondary antibody (Abgenex) for GAPDH and HRP tagged anti-rabbit IgG secondary antibody (Abgenex) for p38, phospho-p38, p53, phospho-p53, snail and slug. The chemiluminescence signal was detected in ChemiDoc XRS + (Bio-Rad) using SuperSignal™ West Femto reagent (Thermo Scientific).
# [6] = tested on: human genomic DNA; assay: Agarose gel electrophoresis of human genomic DNA treated with cATC derivatives; type: binding; settings: 1% agarose gel; EtBr control
# Excerpt: Further, we examined the effect of cATC derivatives (6a/6e/6j/6n) on the ct-DNA duplex structure by circular dichroism (CD) studies. We recorded the CD spectra of ct-DNA with the increasing concentration of cATC derivatives (SM, Fig. S24). […] Next, we examined the binding site of cATC derivative (ligand) at the DNA duplex structure by using AutoDock-Vina, a well-reported computational docking program. We performed docking of cATC derivatives (6a/6d/6k) crystal structure (ligand) with dodecamer DNA duplex crystal structure (PDB ID-1BNA) as the receptor. Our docking results strongly support the non-covalent interaction of cATC derivatives (6a/6d/6k) at the DNA-minor groove with the binding affinity ~7.0 Kcal/mole, mostly hydrophobic interactions (SM, Figs. S25–7, Table S8). […] Overall, cATC derivatives non-covalently bind with DNA duplex through the non-intercalative mode without affecting the native duplex structure. Next, we examined the DNA binding affinity of cATC derivatives (6e/6j/6n) by gel-electrophoresis. The different concentrations of human genomic DNA were treated with EtBr (control) and cATC derivatives (6e/6j/6n) and ran on 1% agarose gel (SM, Fig. S28A–D). […] Further, the Microscale thermophoresis (MST) technique was used to calculate the binding affinities of cATC derivatives (6e/6j/6n) (20 µM) with varying concentrations of human genomic DNA (40 fM to 75 pM).
smiles,measurement,setting,value
Cc1cccc(C2C(C(=O)[O-])N(CCc3ccccc3)c3ccccc[c+]3N2Cc2ccccc2)c1 (stereo not shown) [Compound 6e],cellular localization of fluorescent signal,[1],penetrate the cell membrane and localize to the nucleus
same,"viability at 18 h, 50 µM",[2],15.2%
same,effect on HeLa cell proliferation,"[3]; 10 nM to 50 μM, 18 h",retarded HeLa cell proliferation in a dose dependent manner
same,Cell scavenging,"[3]; HeLa, 50 μM, 18 h",84.74%
same,IC50,"[3]; HeLa, values given in rebuttal letter of peer review file",25.4 µM
same,IC50,"[3]; MTS, 18 h, cell line not named in the sentence (HeLa implied)",25.3 µM
same,cells in G2/M phase,[4]; control 24.36%,7.05%
same,cells in S phase,[4]; control 28.84%,34.61%
same,cells in G0/G1 phase,[4]; control 46.78%,58.33%
same,E-Cadherin expression,"[5]; dose-dependent, 0-19 µM",increased expression of E-Cadherin
same,"expression of EMT markers (N-Cadherin, Snail, Slug)","[5]; dose-dependent, 0-19 µM",decreased expression of EMT markers
same,phospho-P53 and phospho-P38 levels,"[5]; increasing concentration 0-18 μM (6e), 0-19 μM (6j, 6n)",gradual increase in phospho-P53 and phospho-P38 levels
same,visibility of DNA-bound compound on agarose gel under UV light,[6],signal was equivalent to EtBr

# Source: publication PMC9814901, “One-pot synthesis of cyclic-aminotropiminium carboxylate derivatives with DNA binding and anticancer properties” (Communications Chemistry, 2022)
